The values that follow come from paper PMC12897533, “Discovery of bis-thiourea derivatives as potent tyrosinase inhibitors: combined experimental and computational study” (Journal of Enzyme Inhibition and Medicinal Chemistry, 2025).

The term IC50 denotes the concentration that gives 50% inhibition. For orientation: viability means a read-out of living cells in per cent, often relative to untreated cells.

The conditions of data set [1]: cited from earlier work.
The next data set deals with mushroom tyrosinase. Nature of the data set: mushroom tyrosinase activity assay (L-DOPA substrate). Conditions: mean ± SEM. Type of data set: biochemical. How it is done:
The procedure for the mushroom tyrosinase activity assay was conducted in accordance with the methodology described in a previous report. […] In a 96-well plate, 40 μL of mushroom tyrosinase (5 U/μL, Sigma Aldrich, St. Louis, MO, USA) was added to each well, followed by 50 μL of the test compound at various concentrations. After that, 10 μL of 50 mM L-DOPA (purity ≥98%, Sigma-Aldrich, St. Louis, MO, USA) were added and incubated in darkness at 37 °C for 15 min. Finally, the absorbance was measured at 450 nm. The experiment was conducted in triplicate. IC50 values were determined using GraphPad Prism 10.2.2 software.

The nature of data set [2]: copper-chelating activity assay (pyrocatechol violet). Conditions: 5 mM. On the procedure:
The copper-chelating activity of compound 4 was assessed using previously reported protocol[44] with minor modifications. […] After that, the absorbance of each well was measured at 620 nm. The copper-chelating activity was calculated using the formula: Copper-chelating activity (%) = [(Acon – Asam)/Acon] × 100, where Acon and Asam are the absorbance of the control and test sample, respectively.

A short description of the next data set: cytotoxicity MTT assay. In kind it is cell-based, murine. Conditions: mouse, B16F10 melanoma cells, read-out: cell viability. On the procedure: Cell viability was determined using the MTT assay (3-(4,5-dimethylthiazol-2-yl)-2,5-diphenyltetrazolium bromide). B16F10 (murine melanoma cell line) was purchased from American Type Culture Collection (ATCC, Manassas, VA, USA). B16F10 cells were seeded into 96-well plates at a density of 1500 cells per well. After overnight incubation, the cells were treated with different concentrations of the test compound for 48 h. Following this, MTT reagent was added to each well and incubated for 3 h. The culture medium was then removed, and 100 μL of DMSO was used to dissolve the formazan crystals. Absorbance was measured at 540 nm to evaluate cell viability.
(In general: Tetrazolium assays rely on reduction of a dye to a coloured formazan, in cell work by metabolically active cells.)

Data set [3] deals with B16F10 murine melanoma cells. As to the kind of experiment: melanin assay in α-MSH-stimulated cells. Type of data set: cell-based. How it is done:
Melanin production was assessed according to the methodology outlined in a previous study. B16F10 cells were cultured in 6-well plates at a density of 100,000 cells per well. After overnight incubation, the cells were treated with different concentrations of the test compound for 48 h. Note that 1 μM of α-melanocyte-stimulating hormone (α-MSH) (Sigma Aldrich, St. Louis, MO, USA) was used to induce melanin synthesis. Following treatment, the cells were washed twice with PBS, detached using trypsin/EDTA, and centrifuged at 3,000×g for 5 min. The resulting cell pellets, containing approximately 700,000 cells, were solubilised in 2 M NaOH and heated at 100 °C for 30 min. Melanin content was quantified by measuring absorbance at 405 nm.

For a further data set, the target named is tyrosinase. The conditions noted are these: cited from earlier work.

Read-outs that look alike come from different tables or passages of the source.

With `Sc1nc2ccccc2s1` [Compound 2-TBT, 2-thiobenzothiazole], the Copper-chelating activity in data set [1] is 48% to 69.

As to `S=C(NCc1ccc(CNC(=S)Nc2ccc(Cl)cc2)cc1)Nc1ccc(Cl)cc1` [Compound 4], half-maximal inhibition against mushroom tyrosinase (IC50) required 61.6 ± 7.82 µM. The same compound gave a Copper-chelating activity in data set [2] of 64%. Besides, the viability at 48 h, 1 µM in “cytotoxicity MTT assay” (1 μM) was about 90%. Moreover, in “cytotoxicity MTT assay” (3 μM), the viability at 48 h, 3 µM was about 90%. Besides, in “cytotoxicity MTT assay” (10 μM), the viability at 48 h, 10 µM is about 75%. Moreover, the viability at 48 h, 30 µM in “cytotoxicity MTT assay” (30 μM) is about 50%. Besides, the viability at 48 h, 100 µM in “cytotoxicity MTT assay” (100 μM) was under 40%. Also, in data set [3] (10 and 30 μM, 48 h, α-MSH (1 μM)-treated B16F10, vs α-MSH group), the melanin production result is on record as “significantly inhibited melanin production”. In addition, in data set [3] (α-MSH-stimulated B16F10, approximately), the “anti-melanogenic activity compared to KA” value is reported as 30–100 times.

With `S=C1NCCCc2occc21` [Compound T4FAT, 5,6,7,8-tetrahydro-4H-furo[3,2-c]azepine-4-thione], the copper ions chelated result in data set [1] (200 mM ref 63) was “more than 80%”.

`O=C(O)CN(CCN(CC(=O)O)CC(=O)O)CC(=O)O` [EDTA, ethylenediaminetetraacetic acid] yielded a Copper-chelating activity in data set [2] of 95%.

For the compound `O=c1cc(CO)occ1O` [KA, kojic acid], in data set [2], the Copper-chelating activity is recorded as 75%. For the same compound, the melanin content result in data set [3] (1000 μM, 48 h, α-MSH-stimulated B16F10, vs α-MSH group) was “reduced melanin content significantly”.

For the compound `N=C(N)NN=C1C=CC(=NNC(N)=S)C=C1` [ambazone], the 50% inhibitory concentration (IC50) on tyrosinase is 15 µM.

As to `C[C@@H]1[C@H](O)[C@@H](C)/C=C/C=C/C=C/C=C/C=C/C=C/C=C/[C@H](O[C@@H]2O[C@H](C)[C@@H](O)[C@H](N)[C@@H]2O)C[C@@H]2O[C@](O)(C[C@@H](O)C[C@@H](O)[C@H](O)CC[C@@H](O)C[C@@H](O)CC(=O)O[C@H]1C)C[C@H](O)[C@H]2C(=O)O` [amphotericin B], at tyrosinase, the IC50 was 263 ± 11.8 µM.

Regarding `CC1(C)C=Cc2c(O)ccc(C3=Cc4ccc(O)cc4OC3)c2O1` [glabrene], the IC50 at tyrosinase is 7600 µM.

For the compound `CC(=O)Nc1ccc(/C=N/NC(N)=S)cc1` [thioacetazone], the concentration for half-maximal inhibition (IC50) at tyrosinase is 14 µM.
